# Source: patent US20100184815A1 (priority 2008, published 2010)
# Read-outs that look alike come from different tables or passages of the source.
# How the values were obtained:
# Gal-4 hPPARα = molecular target: T1, Gal-4 hPPARα (Homo sapiens, UniProt Q07869); assay: Gal4-hPPARα transient transfection reporter assay in Cos cells; assay type: cell-based; details: luciferase reporter, 24 hours with compound, scale 1-5, read-out: Gal-4 hPPAR α EC50 (scaled number)
# T1 construct: Plasmids pGal4-hPPARα, pGal4-hPPARγ, pGal4-hPPARδ and pG5-TK-pGL3 were constructed as previously described by Staels, Bart, et al., Nature 1998 Jun; 25
# T1 sequence (Q07869 200-468 limits assumed): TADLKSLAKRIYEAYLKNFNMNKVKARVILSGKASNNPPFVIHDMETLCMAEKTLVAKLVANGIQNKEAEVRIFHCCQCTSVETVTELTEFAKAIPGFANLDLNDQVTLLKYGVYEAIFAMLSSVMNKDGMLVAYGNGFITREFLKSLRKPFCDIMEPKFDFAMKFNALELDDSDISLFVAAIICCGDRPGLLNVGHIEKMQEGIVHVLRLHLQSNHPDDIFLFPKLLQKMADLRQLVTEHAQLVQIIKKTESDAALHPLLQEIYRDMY
# Method in brief: (§1)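 Cos cells transiently co-transfected with Gal4-hPPAR expression plasmid, pG5-TK-pGL3 luciferase reporter and β-galactosidase control, then treated 24 h with increasing compound concentrations in DMEM containing 0.2% FCS. Luciferase normalised to β-galactosidase; EC50 from curve fit, at least three experiments.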
# Gal-4 hPPARγ = molecular target: T2, Gal-4 hPPARγ (Homo sapiens, UniProt P37231); assay: Gal4-hPPARγ transient transfection reporter assay in Cos cells; assay type: cell-based; details: luciferase reporter, 24 hours with compound, scale 1-5, read-out: Gal-4 hPPAR γ EC50 (scaled number)
# T2 construct: Plasmids pGal4-hPPARα, pGal4-hPPARγ, pGal4-hPPARδ and pG5-TK-pGL3 were constructed as previously described by Staels, Bart, et al., Nature 1998 Jun; 25
# T2 sequence (P37231 238-505 limits assumed): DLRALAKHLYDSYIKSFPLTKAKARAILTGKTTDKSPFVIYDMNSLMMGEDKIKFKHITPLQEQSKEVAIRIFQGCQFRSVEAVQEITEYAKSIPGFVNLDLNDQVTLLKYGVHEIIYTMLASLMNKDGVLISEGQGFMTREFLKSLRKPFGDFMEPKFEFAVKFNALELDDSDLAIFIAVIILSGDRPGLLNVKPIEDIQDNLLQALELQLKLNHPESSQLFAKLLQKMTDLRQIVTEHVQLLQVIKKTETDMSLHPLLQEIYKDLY
# Method in brief: as §1
# pig liver esterase = assay: Metabolism studies using pig liver esterase; assay type: in vitro ADME; details: 37° C.
# Experimental: The esterase-mediated metabolism of these compounds was studied using commercially available pig liver esterase in the presence and absence of human plasma proteins. The disappearance of parent was monitored over the time course of the incubations using a LC-UV detection system.
# A stock solution and working stock solution was prepared for each proprietary compound as described for the human liver microsomal incubations. Working solutions of pig liver esterase in potassium phosphate buffer ([…], pH 7.4) and pig liver esterase in human plasma protein were prepared by dissolving pig liver esterase (2.51 mg) in the phosphate buffer or plasma protein solutions, respectively.
# A set of three Eppendorf microfuge tubes (1.5 mL) was appropriately labeled. To each tube was added 1.5 mL of phosphate buffer, pig liver esterase in buffer, or pig liver esterase in human plasma protein solution. These solutions were pre-incubated (37° C., 900 rpm) and the reactions were initiated by adding an aliquot (37.5 μL) of the working solution of proprietary compound to each tube. An aliquot (100 μL) from each tube was removed at time 0, 5, 30, 60, and 120 min and added to a tube containing acetonitrile (200 μL) to stop the reaction.
# The samples were centrifuged at 14000 g for 15 minutes at 4° C. The supernatant was transferred to clean labeled HPLC injection vials and stored at −80° C. until analyzed. An aliquot of the supernatant (25 μL) was injected onto the LC-UV system for analysis.
# Half lives of a sample of test articles is noted in the following table. Half life was determined in the presence or absence of plasma.
# [1] = Metabolism studies using human liver microsomal preparations; assay type: in vitro ADME; details: for HLMs t1/2 (min) / half-life: pooled human liver microsomes, with NADPH (CYP system active), 37° C.; for HLMs Predominant Enzyme: comparison of half life with and without NADPH: Esterase, CYP or Mixed; for half-life: pH 7.4, read-out: HLMs t1/2
# Experimental: Compounds were incubated in pooled human liver microsomes (HLMs) in the presence or absence of an NADPH-generating system. NADPH is required for the activity of cytochrome P450 (CYP) and other oxidative enzymes present in HLMs, but not for esterase activity. An additional incubation was carried out in the absence of HLM to assess compound stability. The disappearance of parent and the appearance of the corresponding acid metabolite were monitored over the time course of the incubations using LC-MS/MS.
# A stock solution (20 mM) of each proprietary compound in DMSO was prepared and store at −20° C. until needed. A working stock solution (0.2 mM) was prepared for each proprietary compound by adding an aliquot of the stock solution (10 μL) to acetonitrile (990 μL).
# An aliquot of the HLM solution was removed from the −80° C. freezer and placed on ice. Tris Buffer (50 mM, pH 7.4) containing MgCl2 (hexahydrate, 5 mM) was pre-incubated in a 37° C. water bath. A set of Eppendorf microfuge tubes (1.5 mL) was appropriately labeled. To each tube was added Tris buffer with or without the NADPH generating system. An aliquot of pooled HLMs was added to all the incubations except those that were the buffer control.
# Tubes were preincubated for 5 min in a shaking incubator bath (37° C., 900 rpm) and the reaction was initiated by adding an aliquot of the proprietary working solution (5 μL). The additions were timed carefully in order to coordinate the sample collections below. A small aliquot (50 μL) was removed at […] and delivered to the respective tubes containing dextrorphan (100 μL of 0.5 μg/mL solution) in dissolved in methanol or acetonitrile. The samples were centrifuged at 14000 g for 15 minutes at 4° C. The supernatant was transferred to clean labeled HPLC injection vials and stored at −80° C. until analyzed. An aliquot of the supernatant […] was added to water (75 μL), mixed and injected onto the LC-MS/MS system for analysis.
# “HLM t1/2” represents the observed half life of the compound under conditions that included NADPH, i.e., the CYP system was active. Comparison to the half life of the test article under (−)NADPH conditions, the enzyme predominant ly responsible for the metabolism of the test article. […] Where roughly equal metabolism is seen by each enzyme system, “mixed” is noted in the “Predominant enzyme” column.
# Gal-4 hPPARβ/δ = molecular target: T3, Gal-4 hPPARβ/δ (Homo sapiens, UniProt Q03181); assay: Gal4-hPPARδ transient transfection reporter assay in Cos cells; assay type: cell-based; details: luciferase reporter, 24 hours with compound, scale 1-5, read-out: Gal-4 hPPAR β/δ EC50 (scaled number)
# T3 construct: Plasmids pGal4-hPPARα, pGal4-hPPARγ, pGal4-hPPARδ and pG5-TK-pGL3 were constructed as previously described by Staels, Bart, et al., Nature 1998 Jun; 25
# T3 sequence (Q03181 171-441 limits assumed): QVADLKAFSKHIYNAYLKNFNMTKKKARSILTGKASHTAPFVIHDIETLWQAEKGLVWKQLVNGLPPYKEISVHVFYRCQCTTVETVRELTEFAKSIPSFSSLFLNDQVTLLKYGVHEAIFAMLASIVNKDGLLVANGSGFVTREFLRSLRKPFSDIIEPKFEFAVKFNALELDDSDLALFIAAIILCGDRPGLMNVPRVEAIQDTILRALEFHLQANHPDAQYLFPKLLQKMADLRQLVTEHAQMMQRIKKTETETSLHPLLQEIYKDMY
# Method in brief: as §1
# [2] = pig liver esterase in human plasma protein solution, read-out: Pig Liver Esterase (t1/2 min.) (+) Plasma
# [3] = pig liver esterase in phosphate buffer pH 7.4, no plasma, read-out: Pig Liver Esterase (t1/2 min.) (−) Plasma
# [4] = pig liver esterase in human plasma protein solution
SMILES,EC50 (Gal-4 hPPARα),EC50 (Gal-4 hPPARγ),half-life at 4.9 µM (pig liver esterase; [2]),half-life at 4.9 µM (pig liver esterase; [3]),HLMs t1/2 (min) [1],EC50 (Gal-4 hPPARβ/δ),HLMs Predominant Enzyme [1],half-life [1],Pig Liver Esterase (t1/2 min.) (+) Plasma (pig liver esterase; [4])
"C[C@@H](OC(=O)c1ccc(SC(C)(C)C(=O)O)cc1)c1cn(Cc2ccc(C(F)(F)F)cc2)nn1 [Compound 95, (R)-2-methyl-2-(4-((1-(1-(4-(trifluoromethyl)benzyl)-1H-1,2,3-triazol-4-yl)ethoxy)carbonyl)phenylthio)propanoic acid]",0.001 to 0.05 µM,> 1 µM,> 120 min,68 min,Stable,> 1 µM,,,
"CC(C)c1ccc(-n2nncc2COC(=O)c2ccc(SC(C)(C)C(=O)O)cc2)cc1 [Compound 59, 2-(4-(((1-(4-isopropylphenyl)-1H-1,2,3-triazol-5-yl)methoxy)carbonyl)phenylthio)-2-methylpropanoic acid]",,,44 min,15 min,,,Esterase,30 min,
"Cc1ccc(Cn2nncc2COC(=O)c2ccc(OC(C)(C)C(=O)O)cc2)cc1 [Compound 63, 2-methyl-2-(4-(((1-(4-methylbenzyl)-1H-1,2,3-triazol-5-yl)methoxy)carbonyl)phenoxy)propanoic acid]",,,,120 min,Stable,,Stable,,Stable
"CCCn1nc(Cc2ccc(C)cc2)cc1COC(=O)c1ccc(OC(C)(C)C(=O)O)cc1 [Compound 54, 4-(1-Carboxy-1-methyl-ethoxy)-benzoic acid 5-(4-methyl-benzyl)-2-propyl-2H-pyrazol-3-ylmethyl ester]",,,> 120 min,3 min,,,Esterase,30 min,
"CCCn1c(COC(=O)c2ccc(OC(C)(C)C(=O)O)cc2)nn(Cc2ccc(C(=O)O[C@H](C)C(F)(F)C(F)(F)F)cc2)c1=O [Compound 174, (R)-2-methyl-2-(4-(((5-oxo-1-(4-((3,3,4,4,4-pentafluorobutan-2-yloxy)carbonyl)benzyl)-4-propyl-4,5-dihydro-1H-1,2,4-triazol-3-yl)methoxy)carbonyl)phenoxy)propanoic acid]",,,17 min,< 5 min,,,Esterase,10 min,
"CCCn1nc(Cc2ccc(C)cc2)cc1COC(=O)c1ccc(SC(C)(C)C(=O)O)cc1 [Compound 55, 4-(1-Carboxy-1-methyl-ethylsulfanyl)-benzoic acid 5-(4-methyl-benzyl)-2-propyl-2H-pyrazol-3-ylmethyl ester]",,,16 min,< 1 min,,,Esterase,5 min,
"C[C@@H](Cc1cn(Cc2ccc(C(F)(F)F)cc2)nn1)OC(=O)c1ccc(SC(C)(C)C(=O)O)cc1 [Compound 147, 4-(1-Carboxy-1-methyl-ethylsulfanyl)-benzoic acid (S)-1-methyl-2-[1-(4-trifluoromethyl-benzyl)-1H-1,2,3-triazol-4-yl]-ethyl ester]",,,,77 min,,,Mixed,73 min,Stable
"CCCn1c([C@H](C)OC(=O)c2ccc(SC(C)(C)C(=O)O)cc2)nn(Cc2ccc(C)cc2)c1=O [Compound 248, 4-(1-Carboxy-1-methyl-ethylsulfanyl)-benzoic acid (S)-1-[1-(4-methyl-benzyl)-5-oxo-4-propyl-4,5-dihydro-1H-1,2,4-triazol-3-yl]-ethyl ester]",0.051 to 0.2 µM,> 1 µM,> 120 min,> 120 min,Stable,> 1 µM,,,
"CCCn1c([C@@H](C)OC(=O)c2ccc(SC(C)(C)C(=O)O)cc2)nn(Cc2ccc(C)cc2)c1=O [Compound 249, 4-(1-Carboxy-1-methyl-ethylsulfanyl)-benzoic acid (R)-1-[1-(4-methyl-benzyl)-5-oxo-4-propyl-4,5-dihydro-1H-1,2,4-triazol-3-yl]-ethyl ester]",0.001 to 0.05 µM,> 1 µM,> 120 min,> 120 min,Stable,> 1 µM,,,
"CCCn1c(C(C)OC(=O)c2ccc(SC(C)(C)C(=O)O)cc2)nn(Cc2ccc(C)cc2)c1=O (stereo not drawn) [Compound 199, 2-methyl-2-(4-((1-(1-(4-methylbenzyl)-5-oxo-4-propyl-4,5-dihydro-1H-1,2,4-triazol-3-yl)ethoxy)carbonyl)phenylthio)propanoic acid]",0.001 to 0.05 µM,> 1 µM,> 120 min,> 120 min,Stable,> 1 µM,,,
